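Five compound concentrations were applied to cells in 96-well plates for 48 hours; endpoints were derived by simple linear interpolation of the resulting dose-response curve. TGI: total growth inhibition.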
Columns and labels:
Experiment in all cases: DTP human tumour cell line panel, 48 h
DU-145 prostate = system: DU-145 prostate
CCRF-CEM leukemia = system: CCRF-CEM leukemia
MALME-3M melanoma = system: MALME-3M melanoma
NCI-H522 lung = system: NCI-H522 lung
U251 CNS = system: U251 CNS
SNB-75 CNS = system: SNB-75 CNS
UACC-257 melanoma = system: UACC-257 melanoma
TK-10 renal = system: TK-10 renal
HCC-2998 colon = system: HCC-2998 colon
MCF7 breast = system: MCF7 breast
T-47D breast = system: T-47D breast
SNB-19 CNS = system: SNB-19 CNS
IGROV1 ovarian = system: IGROV1 ovarian
SK-MEL-5 melanoma = system: SK-MEL-5 melanoma
SW-620 colon = system: SW-620 colon
NCI-H460 lung = system: NCI-H460 lung
SK-MEL-2 melanoma = system: SK-MEL-2 melanoma
KM12 colon = system: KM12 colon
UO-31 renal = system: UO-31 renal
RPMI-8226 leukemia = system: RPMI-8226 leukemia
SF-268 CNS = system: SF-268 CNS
SR leukemia = system: SR leukemia
BT-549 breast = system: BT-549 breast
786-0 renal = system: 786-0 renal
COLO 205 colon = system: COLO 205 colon
SF-539 CNS = system: SF-539 CNS
MDA-MB-435 = system: MDA-MB-435
SF-295 CNS = system: SF-295 CNS
OVCAR-4 ovarian = system: OVCAR-4 ovarian
CAKI-1 renal = system: CAKI-1 renal
RXF 393 renal = system: RXF 393 renal
NCI-H226 lung = system: NCI-H226 lung
HL-60(TB) leukemia = system: HL-60(TB) leukemia
NCI/ADR-RES ovarian = system: NCI/ADR-RES ovarian
SN12C renal = system: SN12C renal
M14 melanoma = system: M14 melanoma
EKVX NSCLC = system: EKVX NSCLC
LOX IMVI melanoma = system: LOX IMVI melanoma
OVCAR-8 ovarian = system: OVCAR-8 ovarian
OVCAR-5 ovarian = system: OVCAR-5 ovarian
HS 578T breast = system: HS 578T breast
HOP-62 NSCLC = system: HOP-62 NSCLC
MDA-MB-231 breast = system: MDA-MB-231 breast
HOP-92 NSCLC = system: HOP-92 NSCLC
A549 NSCLC = system: A549 NSCLC
UACC-62 melanoma = system: UACC-62 melanoma
MOLT-4 leukemia = system: MOLT-4 leukemia
HCT-116 colon = system: HCT-116 colon
SK-OV-3 ovarian = system: SK-OV-3 ovarian
HCT-15 colon = system: HCT-15 colon
OVCAR-3 ovarian = system: OVCAR-3 ovarian
ACHN renal = system: ACHN renal
PC-3 prostate = system: PC-3 prostate
K-562 leukemia = system: K-562 leukemia
SK-MEL-28 melanoma = system: SK-MEL-28 melanoma
NCI-H23 lung = system: NCI-H23 lung
HT29 colon = system: HT29 colon
MDA-N = system: MDA-N
A498 renal = system: A498 renal

O=c1cc(N=Nc2ccc(Cl)cc2)[nH]c(=O)[nH]1
TGI (DU-145 prostate): 22.6 µM | TGI (CCRF-CEM leukemia): 4.94 µM | TGI (MALME-3M melanoma): 8.71 µM | TGI (NCI-H522 lung): 3.63 µM | TGI (U251 CNS): 12.6 µM | TGI (SNB-75 CNS): 22.1 µM | TGI (UACC-257 melanoma): 10.6 µM | TGI (TK-10 renal): 13.5 µM | TGI (HCC-2998 colon): 9.1 µM | TGI (MCF7 breast): 22.8 µM | TGI (T-47D breast): 11.9 µM | TGI (SNB-19 CNS): 25.2 µM | TGI (IGROV1 ovarian): 8.92 µM | TGI (SK-MEL-5 melanoma): 21.4 µM | TGI (SW-620 colon): 5.65 µM | TGI (NCI-H460 lung): 12.2 µM | TGI (SK-MEL-2 melanoma): 21.5 µM | TGI (KM12 colon): 10.6 µM | TGI (UO-31 renal): 10.6 µM | TGI (RPMI-8226 leukemia): 12 µM | TGI (SF-268 CNS): 12.3 µM | TGI (SR leukemia): 2.67 µM | TGI (BT-549 breast): 8.38 µM | TGI (786-0 renal): 3.21 µM | TGI (COLO 205 colon): 5.81 µM | TGI (SF-539 CNS): 10.2 µM | TGI (MDA-MB-435): 14 µM | TGI (SF-295 CNS): 22.3 µM | TGI (OVCAR-4 ovarian): 9.03 µM | TGI (CAKI-1 renal): 4.12 µM | TGI (RXF 393 renal): 10.2 µM | TGI (NCI-H226 lung): 20.4 µM | TGI (HL-60(TB) leukemia): 3.89 µM | TGI (NCI/ADR-RES ovarian): 12.5 µM | TGI (SN12C renal): 9.45 µM | TGI (M14 melanoma): 9.19 µM | TGI (EKVX NSCLC): 8.5 µM | TGI (LOX IMVI melanoma): 3.45 µM | TGI (OVCAR-8 ovarian): 12 µM | TGI (OVCAR-5 ovarian): 32.2 µM | TGI (HS 578T breast): 12.7 µM | TGI (HOP-62 NSCLC): 30.1 µM | TGI (MDA-MB-231 breast): 8.28 µM | TGI (HOP-92 NSCLC): 5.48 µM | TGI (A549 NSCLC): 18.8 µM | TGI (UACC-62 melanoma): 7.11 µM | TGI (MOLT-4 leukemia): 7.5 µM | TGI (HCT-116 colon): 3.87 µM | TGI (SK-OV-3 ovarian): 22 µM | TGI (HCT-15 colon): 4.43 µM | TGI (OVCAR-3 ovarian): 9.53 µM | TGI (ACHN renal): 5.76 µM | TGI (PC-3 prostate): 11.7 µM | TGI (K-562 leukemia): > 31.6 µM | TGI (SK-MEL-28 melanoma): 13.5 µM | TGI (NCI-H23 lung): 14.1 µM | TGI (HT29 colon): 5.44 µM | TGI (MDA-N): 11 µM

O=C(O)C1CCCCC1c1c2ccc(=O)cc-2oc2cc(O)ccc12 (stereo not drawn)
TGI (DU-145 prostate): 66.7 µM | TGI (CCRF-CEM leukemia): > 100 µM | TGI (MALME-3M melanoma): > 100 µM | TGI (NCI-H522 lung): 62.1 µM | TGI (U251 CNS): 96.9 µM | TGI (SNB-75 CNS): 72.1 µM | TGI (UACC-257 melanoma): > 100 µM | TGI (TK-10 renal): > 100 µM | TGI (HCC-2998 colon): > 100 µM | TGI (MCF7 breast): > 100 µM | TGI (T-47D breast): 54.4 µM | TGI (SNB-19 CNS): > 100 µM | TGI (IGROV1 ovarian): 41.3 µM | TGI (SK-MEL-5 melanoma): > 100 µM | TGI (SW-620 colon): > 100 µM | TGI (NCI-H460 lung): > 100 µM | TGI (SK-MEL-2 melanoma): > 100 µM | TGI (KM12 colon): 49.1 µM | TGI (UO-31 renal): > 100 µM | TGI (RPMI-8226 leukemia): > 100 µM | TGI (SF-268 CNS): > 100 µM | TGI (BT-549 breast): > 100 µM | TGI (786-0 renal): > 100 µM | TGI (COLO 205 colon): > 100 µM | TGI (SF-539 CNS): 48.7 µM | TGI (MDA-MB-435): 49.3 µM | TGI (SF-295 CNS): > 100 µM | TGI (OVCAR-4 ovarian): 88.1 µM | TGI (CAKI-1 renal): > 100 µM | TGI (RXF 393 renal): 62.6 µM | TGI (HL-60(TB) leukemia): > 100 µM | TGI (A498 renal): > 100 µM | TGI (NCI/ADR-RES ovarian): > 100 µM | TGI (SN12C renal): > 100 µM | TGI (M14 melanoma): 78.6 µM | TGI (EKVX NSCLC): > 100 µM | TGI (LOX IMVI melanoma): > 100 µM | TGI (OVCAR-8 ovarian): 90.8 µM | TGI (OVCAR-5 ovarian): > 100 µM | TGI (HS 578T breast): 96.7 µM | TGI (MDA-MB-231 breast): > 100 µM | TGI (HOP-92 NSCLC): 41.1 µM | TGI (A549 NSCLC): > 100 µM | TGI (UACC-62 melanoma): > 100 µM | TGI (MOLT-4 leukemia): > 100 µM | TGI (HCT-116 colon): > 100 µM | TGI (SK-OV-3 ovarian): 96.5 µM | TGI (HCT-15 colon): > 100 µM | TGI (OVCAR-3 ovarian): 69.2 µM | TGI (ACHN renal): > 100 µM | TGI (PC-3 prostate): > 100 µM | TGI (K-562 leukemia): > 100 µM | TGI (SK-MEL-28 melanoma): > 100 µM | TGI (NCI-H23 lung): > 100 µM | TGI (HT29 colon): > 100 µM | TGI (MDA-N): > 100 µM

CCOc1ccc2nc(NC(NC(=O)c3cccnc3)(C(F)(F)F)C(F)(F)F)sc2c1
TGI (DU-145 prostate): > 100 µM | TGI (CCRF-CEM leukemia): 67.9 µM | TGI (MALME-3M melanoma): > 100 µM | TGI (NCI-H522 lung): 84.2 µM | TGI (U251 CNS): > 100 µM | TGI (SNB-75 CNS): 68.2 µM | TGI (UACC-257 melanoma): 69.4 µM | TGI (TK-10 renal): > 100 µM | TGI (HCC-2998 colon): 84.3 µM | TGI (MCF7 breast): 91.4 µM | TGI (T-47D breast): 58.4 µM | TGI (SNB-19 CNS): > 100 µM | TGI (SK-MEL-5 melanoma): 49.2 µM | TGI (SW-620 colon): > 100 µM | TGI (NCI-H460 lung): > 100 µM | TGI (SK-MEL-2 melanoma): > 100 µM | TGI (KM12 colon): > 100 µM | TGI (UO-31 renal): > 100 µM | TGI (SF-268 CNS): > 100 µM | TGI (SR leukemia): > 100 µM | TGI (BT-549 breast): > 100 µM | TGI (786-0 renal): 94.3 µM | TGI (COLO 205 colon): > 100 µM | TGI (SF-539 CNS): > 100 µM | TGI (MDA-MB-435): 65.4 µM | TGI (SF-295 CNS): > 100 µM | TGI (OVCAR-4 ovarian): > 100 µM | TGI (CAKI-1 renal): > 100 µM | TGI (RXF 393 renal): 61.1 µM | TGI (NCI-H226 lung): > 100 µM | TGI (HL-60(TB) leukemia): 94.8 µM | TGI (NCI/ADR-RES ovarian): 93.3 µM | TGI (SN12C renal): > 100 µM | TGI (M14 melanoma): > 100 µM | TGI (EKVX NSCLC): 79.4 µM | TGI (OVCAR-8 ovarian): 88 µM | TGI (OVCAR-5 ovarian): > 100 µM | TGI (HS 578T breast): > 100 µM | TGI (MDA-MB-231 breast): > 100 µM | TGI (HOP-92 NSCLC): 80.6 µM | TGI (A549 NSCLC): > 100 µM | TGI (UACC-62 melanoma): 91.6 µM | TGI (MOLT-4 leukemia): 55.5 µM | TGI (HCT-116 colon): > 100 µM | TGI (SK-OV-3 ovarian): > 100 µM | TGI (HCT-15 colon): > 100 µM | TGI (OVCAR-3 ovarian): > 100 µM | TGI (ACHN renal): > 100 µM | TGI (PC-3 prostate): 78.6 µM | TGI (K-562 leukemia): > 100 µM | TGI (SK-MEL-28 melanoma): > 100 µM | TGI (NCI-H23 lung): 65.5 µM | TGI (HT29 colon): 30.5 µM | TGI (MDA-N): 42.9 µM
